Measured values published in US20230302150A1, “ANTIBODY-TLR AGONIST CONJUGATES, METHODS AND USES THEREOF” (Ambrx, Inc., priority 2020, published 2023).

Target: T1, hTLR7 (Homo sapiens, UniProt Q9NYK1)
T1 construct: expressed in transfected cells; host or cells: HEK-Blue hTLR7 reporter cell line
T1 sequence (Q9NYK1 27-1049): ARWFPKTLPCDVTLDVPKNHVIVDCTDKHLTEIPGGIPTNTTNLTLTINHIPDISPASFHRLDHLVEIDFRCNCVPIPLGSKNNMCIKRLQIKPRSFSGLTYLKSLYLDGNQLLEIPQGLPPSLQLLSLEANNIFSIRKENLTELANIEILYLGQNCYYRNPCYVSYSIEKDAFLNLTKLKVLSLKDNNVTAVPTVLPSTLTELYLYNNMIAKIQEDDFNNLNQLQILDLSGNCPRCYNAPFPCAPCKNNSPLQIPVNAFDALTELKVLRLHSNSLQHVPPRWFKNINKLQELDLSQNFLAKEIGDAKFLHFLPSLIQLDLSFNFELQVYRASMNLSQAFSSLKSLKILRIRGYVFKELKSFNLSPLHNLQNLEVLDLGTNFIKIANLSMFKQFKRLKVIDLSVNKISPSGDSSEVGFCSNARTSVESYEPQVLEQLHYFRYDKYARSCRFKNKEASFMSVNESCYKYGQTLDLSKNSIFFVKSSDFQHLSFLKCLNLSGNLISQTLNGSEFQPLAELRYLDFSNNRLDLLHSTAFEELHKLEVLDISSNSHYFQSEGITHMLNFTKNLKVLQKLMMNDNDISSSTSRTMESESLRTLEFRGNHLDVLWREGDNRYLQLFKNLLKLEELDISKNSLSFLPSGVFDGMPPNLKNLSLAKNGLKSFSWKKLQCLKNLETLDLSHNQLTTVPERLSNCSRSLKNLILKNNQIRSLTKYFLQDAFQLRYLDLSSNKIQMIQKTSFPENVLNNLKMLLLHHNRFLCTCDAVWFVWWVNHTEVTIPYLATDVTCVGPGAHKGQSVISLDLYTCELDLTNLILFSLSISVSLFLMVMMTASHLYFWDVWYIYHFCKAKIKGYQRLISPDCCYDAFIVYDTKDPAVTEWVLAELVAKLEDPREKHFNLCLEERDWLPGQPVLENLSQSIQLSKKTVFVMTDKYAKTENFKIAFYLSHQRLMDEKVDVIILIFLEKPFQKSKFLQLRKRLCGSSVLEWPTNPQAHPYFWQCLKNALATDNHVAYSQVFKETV
Assay: HEK-Blue hTLR7 reporter assay (NF-kB-induced SEAP, Quanti-Blue)
Format: cell-based
Settings: Table 19, TLR7, drug-linkers with PEG shielding; read-out: EC50
Method: HEK-Blue™ hTLR7 cells were incubated in HEK-Blue™ Detection medium and stimulated with increasing concentrations of TLR7 or TLR8 or TLR7/8 agonists. […] The EC50 was determined from dose-response curve using Prism Software.

Structure (SMILES)	EC50
CCCCOc1nc(N)c2[nH]c(=O)n(Cc3ccc(CN4CCC(CCNC(=O)[C@H](CCCCNC(=O)CON)NC(=O)CCOCCOCCOCCOCCOCCOCCOCCOCCOCCOCCOCCOCCOCCOCCOCCOCCOCCOCCOCCOCCOCCOCCOCCOCCOCCOCCOCCOCCOCCOCCOCCOCCOCCOCCOCCOCCOC)CC4)cc3)c2n1 [AXC-941, (S)—N-(2-(1-(4-((6-amino-2-butoxy-8-oxo-7,8-dihydro-9H-purin-9-yl)methyl)benzyl)piperidin-4-yl)ethyl)-6-(2-(aminooxy)acetamido)-2-PEG37-amidohexanamide]	699 nM
CCCCOc1nc(N)c2[nH]c(=O)n(Cc3ccc(CN4CCC(CCNC(=O)[C@H](CCCCNC(=O)CON)NC(=O)CCCc5ccccc5)CC4)cc3)c2n1 [AXC-942, (S)—N-(2-(1-(4-((6-amino-2-butoxy-8-oxo-7,8-dihydro-9H-purin-9-yl)methyl)benzyl)piperidin-4-yl)ethyl)-6-(2-(aminooxy)acetamido)-2-(4-phenylbutanamido)hexanamide]	387 nM
CCCCOc1nc(N)c2[nH]c(=O)n(Cc3ccc(CN4CCC(CCNC(=O)[C@H](CCCCNC(=O)CON)NC(=O)CCCC(=O)NCCOCCOCCOCCOCCC(=O)NC(COCCC(=O)NCCOCCOCCOCCOCCOCCOCCOCCOC)(COCCC(=O)NCCOCCOCCOCCOCCOCCOCCOCCOC)COCCC(=O)NCCOCCOCCOCCOCCOCCOCCOCCOC)CC4)cc3)c2n1 [AXC-945, (S)—N-(2-(1-(4-((6-amino-2-butoxy-8-oxo-7,8-dihydro-9H-purin-9-yl)methyl)benzyl)piperidin-4-yl)ethyl)-6-(2-(aminooxy)acetamido)-2-dPEG4-(m-dPEG8)3-amidohexanamide]	232 nM
CCCCOc1nc(N)c2[nH]c(=O)n(Cc3ccc(CN4CCC(CCNC(=O)[C@H](CCCCNC(=O)CON)NC(=O)CCCC(=O)NCCOCCOCCOCCOCCC(=O)NC(COCCC(=O)NCCOCCOCCOCCOCCOCCOCCOCCOCCOCCOCCOCCOC)(COCCC(=O)NCCOCCOCCOCCOCCOCCOCCOCCOCCOCCOCCOCCOC)COCCC(=O)NCCOCCOCCOCCOCCOCCOCCOCCOCCOCCOCCOCCOC)CC4)cc3)c2n1 [AXC-946, (S)—N-(2-(1-(4-((6-amino-2-butoxy-8-oxo-7,8-dihydro-9H-purin-9-yl)methyl)benzyl)piperidin-4-yl)ethyl)-6-(2-(aminooxy)acetamido)-2-dPEG4-(m-dPEG12)3-amidohexanamide]	1410 nM
CCCCOc1nc(N)c2[nH]c(=O)n(Cc3ccc(CN4CCC(CCNC(=O)[C@H](CCCCN)NC(=O)CON)CC4)cc3)c2n1 [AXC-947, (S)-6-amino-N-(2-(1-(4-((6-amino-2-butoxy-8-oxo-7,8-dihydro-9H-purin-9-yl)methyl)benzyl)piperidin-4-yl)ethyl)-2-(2-(aminooxy)acetamido)hexanamide]	337 nM
CCCCOc1nc(N)c2[nH]c(=O)n(Cc3ccc(CN4CCC(CCNC(=O)[C@H](CCCCNC(=O)CCOCCOCCOCCOCCOCCOCCOCCOCCOCCOCCOCCOCCOCCOCCOCCOCCOCCOCCOCCOCCOCCOCCOCCOC)NC(=O)CON)CC4)cc3)c2n1 [AXC-949, (S)—N-(2-(1-(4-((6-amino-2-butoxy-8-oxo-7,8-dihydro-9H-purin-9-yl)methyl)benzyl)piperidin-4-yl)ethyl)-2-(2-(aminooxy)acetamido)-6-PEG24-amidohexanamide]	760 nM
CCCCOc1nc(N)c2[nH]c(=O)n(Cc3ccc(CN4CCC(CCNC(=O)[C@H](CCCCNC(=O)CCOCCOCCOCCOCCOCCOCCOCCOC)NC(=O)CON)CC4)cc3)c2n1 [AXC-950, (S)—N-(2-(1-(4-((6-amino-2-butoxy-8-oxo-7,8-dihydro-9H-purin-9-yl)methyl)benzyl)piperidin-4-yl)ethyl)-2-(2-(aminooxy)acetamido)-6-PEG8-amidohexanamide]	443 nM
CCCCOc1nc(N)c2[nH]c(=O)n(Cc3ccc(CN4CCC(CCNC(=O)[C@H](CCCCNC(=O)CCOCCOCCOCCOCCOCCOCCOCCOCCOCCOCCOCCOCCOCCOCCOCCOCCOCCOCCOCCOCCOCCOCCOCCOCCOCCOCCOCCOCCOCCOCCOCCOCCOCCOCCOCCOCCOC)NC(=O)CON)CC4)cc3)c2n1 [AXC-951, (S)—N-(2-(1-(4-((6-amino-2-butoxy-8-oxo-7,8-dihydro-9H-purin-9-yl)methyl)benzyl)piperidin-4-yl)ethyl)-2-(2-(aminooxy)acetamido)-6-(PEG37)hexanamide]	842 nM
CCCCOc1nc(N)c2[nH]c(=O)n(Cc3ccc(CN4CCC(CCNC(=O)[C@H](CCCCNC(=O)CCCC(=O)NCCOCCOCCOCCOCCC(=O)NC(COCCC(=O)NCCOCCOCCOCCOCCOCCOCCOCCOC)(COCCC(=O)NCCOCCOCCOCCOCCOCCOCCOCCOC)COCCC(=O)NCCOCCOCCOCCOCCOCCOCCOCCOC)NC(=O)CON)CC4)cc3)c2n1 [AXC-952, (S)—N-(2-(1-(4-((6-amino-2-butoxy-8-oxo-7,8-dihydro-9H-purin-9-yl)methyl)benzyl)piperidin-4-yl)ethyl)-2-(2-(aminooxy)acetamido)-6-(dPEG4-(m-dPEG8)3)hexanamide]	1020 nM
CCCCOc1nc(N)c2[nH]c(=O)n(Cc3ccc(CN4CCC(CCNC(=O)[C@H](Cc5ccc(O)cc5)NC(=O)CON)CC4)cc3)c2n1 [AXC-953, (S)—N-(2-(1-(4-((6-amino-2-butoxy-8-oxo-7,8-dihydro-9H-purin-9-yl)methyl)benzyl)piperidin-4-yl)ethyl)-2-(2-(aminooxy)acetamido)-3-(4-hydroxyphenyl)propanamide]	201 nM
CCCCOC(=O)Nc1nc(OCCCC)nc2c1[nH]c(=O)n2Cc1ccc(CN2CCC(CCNC(=O)CON)CC2)cc1 [AXC-954, butyl (9-(4-((4-(2-(2-(aminooxy)acetamido)ethyl)piperidin-1-yl)methyl)benzyl)-2-butoxy-8-oxo-8,9-dihydro-7H-purin-6-yl)carbamate]	111 nM
CCCCOc1nc(N)c2[nH]c(=O)n(Cc3ccc(CN4CCC(CCNC(=O)CCN5C(=O)C=CC5=O)CC4)cc3)c2n1 [AXC-955, N-(2-(1-(4-((6-amino-2-butoxy-8-oxo-7,8-dihydro-9H-purin-9-yl)methyl)benzyl)piperidin-4-yl)ethyl)-3-(2,5-dioxo-2,5-dihydro-1H-pyrrol-1-yl)propanamide]	173 nM
CCCCOc1nc(N)c2[nH]c(=O)n(Cc3ccc(CN4CCC(CCNC(=O)[C@H](Cc5ccc(O[C@@H]6O[C@H](CO)[C@@H](O)[C@H](O)[C@H]6O)cc5)NC(=O)CON)CC4)cc3)c2n1 [AXC-956, (S)—N-(2-(1-(4-((6-amino-2-butoxy-8-oxo-7,8-dihydro-9H-purin-9-yl)methyl)benzyl)piperidin-4-yl)ethyl)-2-(2-(aminooxy)acetamido)-3-(4-(((2S,3R,4S,5S,6R)-3,4,5-trihydroxy-6-(hydroxymethyl)tetrahydro-2H-pyran-2-yl)oxy)phenyl)propanamide]	158 nM
CCCCOc1nc(N)c2[nH]c(=O)n(Cc3ccc(CN4CCC(CCNC(=O)[C@@H](CCCCN)NC(=O)CON)CC4)cc3)c2n1 [AXC-958, (R)-6-amino-N-(2-(1-(4-((6-amino-2-butoxy-8-oxo-7,8-dihydro-9H-purin-9-yl)methyl)benzyl)piperidin-4-yl)ethyl)-2-(2-(aminooxy)acetamido)hexanamide]	39.6 nM
CCCCOc1nc(N)c2[nH]c(=O)n(Cc3ccc(CN4CCC(CCNC(=O)[C@@H](CCCCNC(=O)CCOCCOCCOCCOCCOCCOCCOCCOCCOCCOCCOCCOCCOCCOCCOCCOCCOCCOCCOCCOCCOCCOCCOCCOC)NC(=O)CON)CC4)cc3)c2n1 [AXC-959, (R)—N-(2-(1-(4-((6-amino-2-butoxy-8-oxo-7,8-dihydro-9H-purin-9-yl)methyl)benzyl)piperidin-4-yl)ethyl)-2-(2-(aminooxy)acetamido)-6-PEG24-amidohexanamide]	551 nM
